Assay results published in PubChem BioAssay (NCI).
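GI50: concentration for 50% inhibition of growth. TGI marks complete inhibition of growth.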

Assays:
Assay in all cases: NCI-60 cell line screen, 384-well format
786-0 renal = system: 786-0 renal
A498 renal = system: A498 renal
A549 NSCLC = system: A549 NSCLC
ACHN renal = system: ACHN renal
BT-549 breast = system: BT-549 breast
CAKI-1 renal = system: CAKI-1 renal
CCRF-CEM leukemia = system: CCRF-CEM leukemia
COLO 205 colon = system: COLO 205 colon
DU-145 prostate = system: DU-145 prostate
EKVX NSCLC = system: EKVX NSCLC
HCC-2998 colon = system: HCC-2998 colon
HCT-116 colon = system: HCT-116 colon
HCT-15 colon = system: HCT-15 colon
HL-60(TB) leukemia = system: HL-60(TB) leukemia
HOP-62 NSCLC = system: HOP-62 NSCLC
HOP-92 NSCLC = system: HOP-92 NSCLC
HS 578T breast = system: HS 578T breast
HT29 colon = system: HT29 colon
IGROV1 ovarian = system: IGROV1 ovarian
KM12 colon = system: KM12 colon
LOX IMVI melanoma = system: LOX IMVI melanoma
M14 melanoma = system: M14 melanoma
MALME-3M melanoma = system: MALME-3M melanoma
MCF7 breast = system: MCF7 breast
MDA-MB-231 breast = system: MDA-MB-231 breast
MDA-MB-435 melanoma = system: MDA-MB-435 melanoma
MDA-MB-468 breast = system: MDA-MB-468 breast
MOLT-4 leukemia = system: MOLT-4 leukemia
NCI-H226 lung = system: NCI-H226 lung

`CN1CCN(c2ccc(C(=O)Nc3n[nH]c4ccc(Cc5cc(F)cc(F)c5)cc34)c(NC3CCOCC3)c2)CC1` showed a GI50 (786-0 renal) of 1510 nM, a TGI (786-0 renal) of 2850 nM and a GI50 (A498 renal) of 1710 nM. For the same molecule, the TGI (A498 renal) was 3090 nM, the GI50 (A549 NSCLC) was 1410 nM and the TGI (A549 NSCLC) was 2730 nM. For the same molecule, the GI50 (ACHN renal) was 1540 nM, the TGI (ACHN renal) was 2880 nM and the GI50 (BT-549 breast) was 1730 nM. The TGI (BT-549 breast) was 3120 nM, the GI50 (CAKI-1 renal) was 1630 nM and the TGI (CAKI-1 renal) was 3000 nM. It also gave a GI50 (CCRF-CEM leukemia) of 1870 nM, a TGI (CCRF-CEM leukemia) of 3300 nM and a GI50 (COLO 205 colon) of 1720 nM. The TGI (COLO 205 colon) was 3120 nM, the GI50 (DU-145 prostate) was 1550 nM and the TGI (DU-145 prostate) was 2890 nM. The GI50 (EKVX NSCLC) was 1200 nM, the TGI (EKVX NSCLC) was 2460 nM and the GI50 (HCC-2998 colon) was 1030 nM. It also gave a TGI (HCC-2998 colon) of 2220 nM, a GI50 (HCT-116 colon) of 1500 nM and a TGI (HCT-116 colon) of 2850 nM. It also gave a GI50 (HCT-15 colon) of 1160 nM, a TGI (HCT-15 colon) of 2410 nM and a GI50 (HL-60(TB) leukemia) of 1830 nM. For the same molecule, the TGI (HL-60(TB) leukemia) was 3240 nM, the GI50 (HOP-62 NSCLC) was 1430 nM and the TGI (HOP-62 NSCLC) was 2750 nM. It also gave a GI50 (HOP-92 NSCLC) of 1140 nM, a TGI (HOP-92 NSCLC) of 2360 nM and a GI50 (HS 578T breast) of 1530 nM. It also gave a TGI (HS 578T breast) of 2860 nM, a GI50 (HT29 colon) of 1300 nM and a TGI (HT29 colon) of 2610 nM. It also gave a GI50 (IGROV1 ovarian) of 1010 nM, a TGI (IGROV1 ovarian) of 2210 nM and a TGI (KM12 colon) of 1370 nM. It also gave a GI50 (LOX IMVI melanoma) of 1530 nM, a TGI (LOX IMVI melanoma) of 2870 nM and a GI50 (M14 melanoma) of 1690 nM. For the same molecule, the TGI (M14 melanoma) was 3060 nM, the GI50 (MALME-3M melanoma) was 1270 nM and the TGI (MALME-3M melanoma) was 2530 nM. The GI50 (MCF7 breast) was 1140 nM, the TGI (MCF7 breast) was 2370 nM and the GI50 (MDA-MB-231 breast) was 1230 nM. It also gave a TGI (MDA-MB-231 breast) of 2480 nM, a GI50 (MDA-MB-435 melanoma) of 1690 nM and a TGI (MDA-MB-435 melanoma) of 3070 nM. It also gave a GI50 (MDA-MB-468 breast) of 1120 nM, a TGI (MDA-MB-468 breast) of 2330 nM and a GI50 (MOLT-4 leukemia) of 1360 nM. For the same molecule, the TGI (MOLT-4 leukemia) was 2650 nM, the GI50 (NCI-H226 lung) was 727 nM and the TGI (NCI-H226 lung) was 2070 nM.
